Read-outs that look alike come from different tables or passages of the source.
Tests used:
mice = experiment: Scopolamine-induced amnesia, step through passive avoidance; type: in vivo; details: scopolamine 0.5 mg/kg i.p., mean ± S.E.M., controls 40.9±8.1 (Compound 41), 37.0±6.2 (Compound 51)
Method: Acquisition trial was performed in a manner similar to Experiment (f). Amnestic treatment was performed by intraperitoneal administration of scopolamine (0.5 mg/kg), 30 minutes prior to the acquisition trial. The test trial was performed 24 hours after the acquisition trial and its latency was determined as in Experiment (f).
Preparation of administrated test compound was performed in a manner similar to Experiment (f). Test compound and the saline were orally administered 60 minutes before the acquisition trial, respectively.

male dd-mice = experiment: Acute toxicity; type: in vivo; details: Minimum lethal dose, oral, mortality observed for seven days
Method: The compounds were orally administrated to male dd-mice weighing 20 ± 1 g. Minimum lethal dose (MLD) was determined by observing the mortality for seven days after the administration.

Male ddy mice = experiment: Electroconvulsive shock (ECS)-induced amnesia, step through passive avoidance; type: in vivo; details: mean ± S.E.M., control 70.9±13.5
Method: Male ddy mice (weighing 23 to 29 g) were used and each group consists of 14 to 15 animals. These tests were performed with a step through type passive avoidance apparatus. As experimental apparatus, two rooms (bright and dark) with automatic management system were used. An experimental apparatus is composed of a bright room equipped with 4W of fluorescent light (15 x 9 x 11 cm) and a dark room (15 x 14 x 18 cm), the two rooms are separated by a guillotine door of 3 x 3 cm. The floor of both rooms is stainless steal grid floor and the weak electric current can be send the grid floor of dark room. In the automatic management system, latency of acquisition trial and test trial are measured automatically by controlling with a controller (TK-402, by UNICOM, Japan).
The test compound was dissolved in saline and saline was used as a control. The test compound and the saline (control) were orally administered 60 minutes before the acquisition trial, respectively.
Acquisition trial for learning was performed as follows. […] As soon as the mouse entered the dark room, a scrambled foot-shock (0.18 mA) was delivered to the floor grid for 2 seconds. In the test trial, given 24 hours after the acquisition trial, the animal was again placed in the bright room and the response latency to enter the dark room was measured. The mice which required over 60 seconds to move from the bright room into the dark room were excluded from the test trial. Immediately after the acquisition trial, electric convulsive shock (ECS) (25 mA, 0.2 second, 2000 V) was loaded on mice. The test trial was performed 24 hours after the ECS treatment as follows. The mice received the acquisition trial were placed in the bright room and, latency from the door opening to the entrance of the whole body of animal into the dark room was measured. The maximum measurement time was 600 seconds and latency exceeding 600 seconds was recorded as 600 seconds.
Statistical significance between the control group and test compound treated group was judged by Man Whitney U-test.

Hartley male guinea pigs = experiment: Experimental asthma (collapse time after antigen aerosol); type: in vivo; details: 1 hour before 1.5% EWA aerosol, n=3-10 mean±S.E.M., control 254 ± 18
Method: Guinea pigs were passively sensitized as follows. Hartley male guinea pigs weighing 350 to 500 g were intraperitoneally injected with 1 ml of rabbit anti-egg alubmin (EWA) serum prepared by the method of Koda et al. [Folia pharmacol., Japon, 66, 237 (1970)]. The animals were treated with intraperitoneal injection of diphenhydramine (20 mg/kg) and propranolol (5 mg/kg), 30 minutes before administration of test compounds. 17 hours after the sensitization, the test compounds (50 mg/kg or 5 mg/kg) or saline (control) were orally administrated to sensitized animals. After one hour from the administration of the test compounds, the guinea pigs were placed in plastic observation box and were exposed to an aerosal antigen of 1.5% EWA.
The time until the onset of respiratory distress-like symptom [collapse time (second)] was measured as a result of experimental asthma.

male dd mice = experiment: Inhibition of platelet activating factor (PAF)-induced mortality; type: in vivo; details: Mus musculus, minimum effective dose, oral, 1 hour before 40 µg/kg PAF i.v., mortality 2 hours after PAF, read-out: PAF-induced mortality MED
Method: The experiment was performed by a minor modification of method of Carlson et al. [Agents and Actions, 21, 379 (1987)]. Groups each consisting of 10 male dd mice (weighing 28 to 32 g) were used, and 100 mg/kg of test compound or a saline (control) was orally administrated. One hour after the administration of test compound, 40 µg/kg of PAF (manufactured by Avanti Polar Lipids Co., Ltd.) was intravenously administered. Two hours after PAF injection, the mortality rate of the animals was observed. […]

Wistar male rats = experiment: Diuretic activity; type: in vivo; details: Rattus norvegicus, po, 25 mg/kg orally, urine taken for 6 hours
Method: Wistar male rats weighing 150 to 300 g were used after fasting for 18 hours. […] The test was performed using 3 groups per test compound, and each group consists of 3 animals. The urine was metered by a measuring cylinder and electrolytes (Na^+ and K^+) in the urine were analyzed by flame photometer (model […]: Hitachi Ltd.). Parameters in Table 3 are represented by relative value for control.

trachea = experiment: Passive Schultz-Dale reaction (broncho-dilatory effect) on isolated tracheal strips; details: Cavia porcellus; 50% relaxation of antigen (EWA, 1 µg/ml)-contracted tracheal strips of passively sensitized guinea pigs
Method: Guinea pigs were passively sensitized as follows. Hartley male guinea pigs weighing 350 to 500 g were injected intraperitoneally with rabbit anti-egg albumin (EWA) serum prepared by the method of Koda et al. [Folia pharmacol., Japon 66, 237, (1970)]. After 24 hours, the guinea pigs were stunned and exsanguinated, and then trachea was excised. The zig-zag strips of the trachea were prepared by the method of Emmerson and Mackay [J. Pharm. Pharmacol., 31, 798, (1979)]. The strips were suspended in Krebs-Henseleit solution at 37°C under aeration of a mixed gas of 95% oxygen and 5% carbon dioxide, and incubated for one hour. Antigen (EWA) was then introduced in the solution (final concentration; 1 µg/ml), and the contraction was measured by isotonictransducer (TD-112s, made by Nihon Kohden K.K., Japan) and recorded on a recorder (Type 3066, made by Yokogawa-Hokushin Denki, K.K. Japan). After the contraction curves reached plateau the compounds were successively added in order to get cumulative concentration-relaxation curves. Concentration of 50% relaxation rate (IC50) was calculated from the regression line, which was obtained from cumulative concentration-relaxation curves.

[1] = 0.625 mg/kg orally 60 minutes before acquisition trial
[2] = 2.5 mg/kg orally 60 minutes before acquisition trial
[3] = 10 mg/kg orally 60 minutes before acquisition trial
[4] = 40 mg/kg orally 60 minutes before acquisition trial
[5] = relative value for control (1.00), read-out: Na^+/K^+
[6] = relative value for control (100), read-out: Excretion of K^+
[7] = relative value for control (100), read-out: Excretion of Na^+
[8] = relative value for control (100), read-out: Urine volume

Row | SMILES | Latency of test trial (mice; [1]) [s] | Latency of test trial (mice; [2]) [s] | Latency of test trial (mice; [3]) [s] | Latency of test trial (mice; [4]) [s] | MLD (male dd-mice) [mg/kg] | Latency of test trial (Male ddy mice; [1]) [s] | Latency of test trial (Male ddy mice; [2]) [s] | Latency of test trial (Male ddy mice; [3]) [s] | Latency of test trial (Male ddy mice; [4]) [s] | Experimental asthma Collapse time (Hartley male guinea pigs; 50 mg/kg orally) [s] | minimal effective dose (male dd mice) [mg/kg] | response vs control in vivo at 25 mg/kg (Wistar male rats; [5]) [%] | response vs control in vivo at 25 mg/kg (Wistar male rats; [6]) [%] | response vs control in vivo at 25 mg/kg (Wistar male rats; [7]) [%] | response vs control in vivo at 25 mg/kg (Wistar male rats; [8]) [%] | IC50 (trachea) [µM] | Experimental asthma Collapse time (Hartley male guinea pigs; 5 mg/kg orally) [s]
1 | CCCn1c(=O)n2c(=O)[nH]nc2c2c1ncn2C [Compound 41, 9-Methyl-6-n-propyl-2,5,6,9-tetrahydro-3H-1,2,4-triazolo[3,4-i]purin-3,5-dione] | 96.8 ± 21.5 | 115.8 ± 26.6 | 53.4 ± 8.9 | 74.3 ± 18.8 | >300 | 105.9 ± 44.0 | 111.3 ± 20.1 | 97.4 ± 38.7 | 171.8 ± 43.1 |  |  |  |  |  |  |  | 
2 | CCCn1c(=O)n2c(C)nnc2c2[nH]cnc21 [Compound 25, 6,9-Dihydro-3-methyl-6-n-propyl-5H-1,2,4-triazolo[3,4-i]-purin-5-one] |  |  |  |  | 100 |  |  |  |  | 590 ± 9.8 | 100 | 163 | 119 | 193 | 161 | 0.42 | 
3 | CCCn1c(=O)n2c(-c3ccc(Cl)cc3)nnc2c2c1ncn2C [Compound 12, 3-(4-Chlorophenyl)-6,9-dihydro-9-methyl-6-n-propyl-5H-1,2,4-triazolo[3,4-i]purin-5-one] |  |  |  |  | >300 |  |  |  |  |  | 100 | 142 | 129 | 183 | 198 | 26 | 399 ± 55
